According to patent publication US4088772A, “Methanodibenzocycloheptapyrroles” (E. I. Du Pont de Nemours and Company, priority 1975, dated 1978):
Like-named read-outs stand apart in the source and are kept apart here.

Key:
[1] = tested on: phenylquinone-induced writhing; test: Phenylquinone writhing test (analgesia); type: in vivo, mouse (Carworth CF1 S female); conditions: Mus musculus
Text: This mouse test is predictive of analgesic response in humans. [E. Siegmund, R. Cadmus and G. Lee, Proc. Soc.
ED50 values were obtained graphically from the data.

female white mice = test: animal or person; conditions: Mus musculus, po, oral, mice
Description: (§1) Groups of five Carworth CF1 S female mice, 16-20 g each, were fasted 16-22 hours before use. The mice were put in opaque plastic "shoe-box" cages 15-30 min. before injection, and then treated orally with 4, 12, 36, 108 and 324 mg/kg of the compound to be tested as a 13 mg/ml solution in 1% aqueous distilled water solution of methylcellulose (Methocel®). Each dose was given in a standard volume of 0.45 ml. Observations were made at 0.5, 2 and 24 hours after dosing. ED50 values were calculated for each parameter including death (LD50). The ED50 and LD50 values are the doses at which 50% of the naimals would be expected to respond.
(§2) The mouse is placed on a stainless steel wire mesh screen (8 × 12 inches, 3 mesh per inch, 1/4 inch mesh openings) "shoe-box" lid (1 inch high) and is observed for normal activities, such as nose movements, head movements with apparent visual examination of the area, and/or walking around on the screen. Absence of or marked depression of these activities for 5 seconds constitutes loss of exploratory activity.
(§3) The mouse is picked up by the tail and placed on the screen with its head facing the observer. Bilateral eyelid closure of 50% or more two seconds after placement is considered ptosis.
(§4) The mouse is placed with its front paws on the edge of a stainless steel "shoe-box" cover, 1 inch high, covered with adhesive tape. Failure to remove both paws from the cover's edge within 5 seconds constitutes catatonia.
(§5) The observer gently strokes the abdominal musculature of the mouse with thumb and forefinger. Flaccidity (or rarely, tenseness) is recorded.
(§6) The mouse is gently swung by the tail toward a horizontal 12 gauge wire tautly stretched 25 cm above the bench. After the mouse grasps the wire with its forepaws, its posterior end is held directly below the wire. A normal mouse grasps the wire with its forepaws and immediately lifts its hind limbs to the wire. Failure to grasp the wire with the forepaws in both trials constitutes loss of the grip reflex; failure to lift the hind limbs to grasp the wire with at least one hind paw within 5 seconds constitutes loss of the lift reflex.
(§7) The mouse is placed on the bar 10-20 cm horizontally and 9 cm vertically from a Galton whistle adjusted for 13 kc (5 mm on the whistle scale) and is subjected to several short bursts of sound.
(§8) An effective tranquilizer should induce little or no tremor response. […] Tremors include fine or coarse and intermittent or continuous tremors.

in vivo = conditions: mouse, in vivo, po
Description: as §1, §2, §3, §4, §5, §6, §7, §8

[2] = read-out: Catatonia ED50, Table 1
[3] = read-out: Exploratory Loss Visual ED50, Table 1
[4] = read-out: Muscle Tone ED50, Table 1
[5] = read-out: Reflexes Grip ED50, Table 1
[6] = read-out: Reflexes Lift ED50, Table 1
[7] = read-out: Reflexes Pinna ED50, Table 1

Compound	ED50 ([1]; po, Table 1, mice) [mg/kg]	ED50 (female white mice; [2]) [mg/kg]	ED50 (female white mice; [3]) [mg/kg]	ED50 (female white mice; [4]) [mg/kg]	ED50 (female white mice; read-out: Ptosis ED50, Table 1) [mg/kg]	ED50 (female white mice; [5]) [mg/kg]	ED50 (female white mice; [6]) [mg/kg]	ED50 (female white mice; [7]) [mg/kg]	ED50 (in vivo) [mg/kg]	LD50 at 24 h (in vivo) [mg/kg]	ED50 ([1]; Table 1, oral, mice) [mg/kg]	ED50 (in vivo; Tremors ED50, Table 1, mice) [mg/kg]
C1=C[C@@H]2C[C@H]1C[C@@H]2CN1C[C@@H]2c3ccccc3[C@@H]3C[C@@]2(C1)c1ccccc13 (relative stereo) [Example 38, 2-(2-Endo-bicyclo[2.2.1]hept-5-enylmethyl)-2,3,8,12b-tetrahydro-1H-3a,8-methanodibenzo[3,4:6,7]cyclohepta[1,2-c]pyrrole]	31	100	200	200	60	> 324	200	> 324	> 324	> 324		
c1ccc(CCN2C[C@@H]3c4ccccc4[C@@H]4C[C@@]3(C2)c2ccccc24)cc1 (relative stereo) [Example 39, 2-(2-Phenylethyl)-2,3,8,12b-tetrahydro-1H-3a,8-methanodibenzo[3,4:6,7]cyclohepta[1,2-c]pyrrole]	22	100	200	> 324	200	> 324	100	100	300	> 324		
c1ccc(OCCN2C[C@@H]3c4ccccc4[C@@H]4C[C@@]3(C2)c2ccccc24)cc1 (relative stereo) [Example 40, 2-(2-Phenoxyethyl)-2,3,8,12b-tetrahydro-1H-3a,8-methanodibenzo[3,4:6,7]cyclohepta[1,2-c]pyrrole]	5.3	12	60	20	7	> 324	20	12	> 324	> 324		
COCCN1C[C@@H]2c3ccccc3[C@@H]3C[C@@]2(C1)c1ccccc13 (relative stereo) [Example 41, 2-(2-Methoxyethyl)-2,3,8,12b-tetrahydro-1H-3a,8-methanodibenzo[3,4:6,7]cyclohepta[1,2-c]pyrrole]	4.2	20	20	36	20	200	36	20	> 324	300		
c1coc(CN2C[C@@H]3c4ccccc4[C@@H]4C[C@@]3(C2)c2ccccc24)c1 (relative stereo) [Example 42, 2-(2-Furylmethyl)-2,3,8,12b-tetrahydro-1H-3a,8-methanodibenzo[3,4:6,7]cyclohepta[1,2-c]pyrrole]	26	36	60	20	20	> 324	200	60	> 324	300		
c1ccc2c(c1)[C@@H]1C[C@@]3(CN(C4CC4)C[C@H]23)c2ccccc21 (relative stereo) [Example 46, 2-Cyclopropyl-2,3,8,12b-tetrahydro-1H-3a,8-methanodibenzo[3,4:6,7]cyclohepta[1,2-c]pyrrole]		200	200	200	60	300	200	300		> 324	90	> 324
c1ccc2c(c1)[C@@H]1C[C@@]3(CN(C4CCC4)C[C@H]23)c2ccccc21 (relative stereo) [Example 47, 2-Cyclobutyl-2,3,8,12b-tetrahydro-1H-3a,8-methanodibenzo[3,4:6,7]cyclohepta[1,2-c]pyrrole]		60	60	60	36	200	60	36		> 324	9.6	> 324
